Laboratory results published in patent US20260138949A1, “NOVEL COMPOUND AS PHOSPHOLIPASE D INHIBITOR AND USE THEREOF” (UIF (UNIVERSITY INDUSTRY FOUNDATION), YONSEI UNIVERSITY, priority 2022, published 2026).

What follows are compounds tested on phospholipase D1 (assay: PLD activity in HCT116 cells ([3H]phosphatidylbutanol, TLC)). Conditions: compound 10 μM, cells without the compound = 100%.
Type: cell-based, human
Description: To evaluate the inhibitory effect of the compounds according to the present invention on phospholipase D1 activity, experiments were conducted as follows.
For the analysis of PLD activity in cells, human colon cancer cell line (HCT116) was cultured in a 6-well plate at 37° C. for 24 hours, washed twice with phosphate-buffered saline (PBS), and then replaced with medium containing [^3H]myristate and cultured for 24 hours. After the culture, the cells were washed three times with PBS, treated with 1-butanol, and the drug was added to a final concentration of 10 μM. The cells were trypsinized and suspended, and the amount of [^3H]phosphatidylbutanol produced in the cell suspension was measured and evaluated for PLD activity using thin layer chromatography (TLC), and the results are shown in Table 1 below.
The Remaining activity % at 10 μM in Table 1 is calculated by setting the amount of [^3H]phosphatidylbutanol produced in cells without the compound as 100% and calculating the amount of [^3H]phosphatidylbutanol produced in cells treated with the compound as a percentage. Therefore, the lower the value of Remaining activity %, the higher the PLD inhibitory activity.

Compound	Remaining activity % at 10 μM
O=C(CCc1c[nH]c2ccccc12)Nc1ccc(Cl)c([N+](=O)[O-])c1 [Example 1-68, N-(4-chloro-3-nitrophenyl)-3-(1H-indol-3-yl)propanamide]	not active
O=C(Nc1ccc(O)c(O)c1)c1cc2cc(F)ccc2[nH]1 [Example 1-110, N-(3,4-dihydroxyphenyl)-5-fluoro-1H-indole-2-carboxamide]	28.85%
COC(=O)c1ccc(CNC(=O)CCCc2c[nH]c3ccccc23)cc1 [Example 1-80, methyl 4-((4-(1H-indol-3-yl)butanamido)methyl)benzoate]	56.02%
O=C(CCCc1c[nH]c2ccccc12)Nc1ccc(F)cc1 [Example 1-75, N-(4-fluorophenyl)-4-(1H-indol-3-yl)butanamide]	not active
O=C(Nc1ccccc1F)c1cc2cc(F)ccc2[nH]1 [Example 1-97, 5-fluoro-N-(2-fluorophenyl)-1H-indole-2-carboxamide]	not active
O=C(Cc1c[nH]c2ccccc12)NNc1ccc(Br)cc1 [Example 1-55, N′-(4-bromophenyl)-2-(1H-indol-3-yl)acetohydrazide]	77.89%
O=C(Cc1c[nH]c2ccccc12)NCc1ccc(F)cc1 [Example 1-37, N-(4-fluorobenzyl)-2-(1H-indol-3-yl)acetamide]	not active
O=C(NCc1ccc(Cl)c(Cl)c1)c1c[nH]c2ccccc12 [Example 1-5, N-(3,4-dichlorobenzyl)-1H-indole-3-carboxamide]	89.34%
O=C(Nc1cc(F)cc(F)c1)c1cc2cc(F)ccc2[nH]1 [Example 1-92, N-(3,5-difluorophenyl)-5-fluoro-1H-indole-2-carboxamide]	56.88%
O=C(CCCc1c[nH]c2ccccc12)Nc1ccc(Cl)c([N+](=O)[O-])c1 [Example 1-78, N-(4-chloro-3-nitrophenyl)-4-(1H-indol-3-yl)butanamide]	42.24%
O=C(Cc1c[nH]c2ccccc12)NCc1ccccc1Cl [Example 1-48, N-(2-chlorobenzyl)-2-(1H-indol-3-yl)acetamide]	75.72%
COc1ccc(CNC(=O)CCc2c[nH]c3ccccc23)cc1OC [Example 1-73, N-(3,4-dimethoxybenzyl)-3-(1H-indol-3-yl)propanamide]	95.81%
O=C(CCc1c[nH]c2ccccc12)Nc1ccccc1F [Example 1-61, N-(2-fluorophenyl)-3-(1H-indol-3-yl)propanamide]	45.47%
O=C(Nc1cc(C(F)(F)F)cc(C(F)(F)F)c1)c1cc2ccccc2[nH]1 [Example 1-84, N-(3,5-bis(trifluoromethyl)phenyl)-1H-indole-2-carboxamide]	26.01%
O=C(Nc1ccc(F)cc1)c1cc2cc(F)ccc2[nH]1 [Example 1-90, 5-fluoro-N-(4-fluorophenyl)-1H-indole-2-carboxamide]	48.64%
O=C(CCc1c[nH]c2ccccc12)Nc1ccc(Br)cc1 [Example 1-65, N-(4-bromophenyl)-3-(1H-indol-3-yl)propanamide]	not active
COC(=O)c1ccc2[nH]c(C(=O)Nc3cc(C(F)(F)F)cc(C(F)(F)F)c3)cc2c1 [Example 1-100, methyl 2-((3,5-bis(trifluoromethyl)phenyl)carbamoyl)-1H-indole-5-carboxylate]	46.12%
O=C(O)c1ccc2[nH]c(C(=O)Nc3cc(C(F)(F)F)cc(C(F)(F)F)c3)cc2c1 [Example 1-101, 2-((3,5-bis(trifluoromethyl)phenyl)carbamoyl)-1H-indole-5-carboxylic acid]	57.61%
O=C(Cc1c[nH]c2ccccc12)NNc1ccccc1Cl [Example 1-51, N′-(2-chlorophenyl)-2-(1H-indol-3-yl)acetohydrazide]	82.82%
COc1cc(NC(=O)c2cc3cc(F)ccc3[nH]2)cc(OC)c1 [Example 1-96, N-(3,5-dimethoxyphenyl)-5-fluoro-1H-indole-2-carboxamide]	98.38%
O=C(Nc1cccc(F)c1)c1cc2cc(F)ccc2[nH]1 [Example 1-98, 5-fluoro-N-(3-fluorophenyl)-1H-indole-2-carboxamide]	76.66%
O=C(Cc1c[nH]c2ccccc12)NCc1ccc([N+](=O)[O-])cc1 [Example 1-46, 2-(1H-indol-3-yl)-N-(4-nitrobenzyl)acetamide]	57.41%
O=C(Cc1c[nH]c2ccccc12)Nc1cccc([N+](=O)[O-])c1 [Example 1-30, 2-(1H-indol-3-yl)-N-(3-nitrophenyl)acetamide]	not active

Compound	Remaining activity % at 10 μM
O=C(Cc1c[nH]c2ccccc12)Nc1ccc(Cl)c(Cl)c1 [Example 1-20, N-(3,4-dichlorophenyl)-2-(1H-indol-3-yl)acetamide]	not active
Cc1cc(C)cc(NC(=O)c2cc3ccccc3[nH]2)c1 [Example 1-104, N-(3,5-dimethylphenyl)-1H-indole-2-carboxamide]	66.73%
COC(=O)c1ccc(CNC(=O)Cc2c[nH]c3ccccc23)cc1 [Example 1-38, methyl 4-((2-(1H-indol-3-yl)acetamido)methyl)benzoate]	99.81%
O=C(Cc1c[nH]c2ccccc12)Nc1ccccc1Br [Example 1-15, N-(2-bromophenyl)-2-(1H-indol-3-yl)acetamide]	30.42%
COc1ccc(CNC(=O)CCCc2c[nH]c3ccccc23)cc1 [Example 1-81, 4-(1H-indol-3-yl)-N-(4-methoxybenzyl)butanamide]	59.84%
COc1ccccc1CNC(=O)Cc1c[nH]c2ccccc12 [Example 1-50, 2-(1H-indol-3-yl)-N-(2-methoxybenzyl)acetamide]	79.27%
COc1ccc(NC(=O)Cc2c[nH]c3ccccc23)cc1 [Example 1-11, 2-(1H-indol-3-yl)-N-(4-methoxyphenyl)acetamide]	not active
O=C(Cc1c[nH]c2ccccc12)Nc1cccc(O)c1 [Example 1-8, N-(3-hydroxyphenyl)-2-(1H-indol-3-yl)acetamide]	65.7%
O=C(Nc1cccc(C(F)(F)F)c1)c1cc2cc(F)ccc2[nH]1 [Example 1-95, 5-fluoro-N-(3-(trifluoromethyl)phenyl)-1H-indole-2-carboxamide]	52.08%
O=C(Cc1c[nH]c2ccccc12)Nc1ccc(Br)cn1 [Example 1-21, N-(5-bromopyridin-2-yl)-2-(1H-indol-3-yl)acetamide]	46.59%
CC(C)c1ccc(NC(=O)Cc2c[nH]c3ccccc23)cc1 [Example 1-33, 2-(1H-indol-3-yl)-N-(4-isopropylphenyl)acetamide]	83.43%
CC(C)(C)c1ccc(NC(=O)Cc2c[nH]c3ccccc23)cc1 [Example 1-27, N-(4-tert-butylphenyl)-2-(1H-indol-3-yl)acetamide]	81.22%
O=C(Nc1ccc(O)c(O)c1)c1c[nH]c2ccccc12 [Example 1-105, N-(3,4-dihydroxyphenyl)-1H-indole-3-carboxamide]	39.17%
O=C(CCc1c[nH]c2ccccc12)Nc1ccc(Cl)c(Cl)c1 [Example 1-69, N-(3,4-dichlorophenyl)-3-(1H-indol-3-yl)propanamide]	not active
O=C(Cc1c[nH]c2ccccc12)NCc1ccccn1 [Example 1-56, 2-(1H-indol-3-yl)-N-(pyridin-2-ylmethyl)acetamide]	96.79%
COC(=O)c1ccc(NC(=O)Cc2c[nH]c3ccccc23)cc1 [Example 1-25, methyl 4-(2-(1H-indol-3-yl)acetamido)benzoate]	66.73%
O=C(Cc1c[nH]c2ccccc12)Nc1cccc(Br)c1 [Example 1-16, N-(3-bromophenyl)-2-(1H-indol-3-yl)acetamide]	97.25%
CCOC(=O)c1ccc(NC(=O)Cc2c[nH]c3ccccc23)cc1 [Example 1-29, ethyl 4-(2-(1H-indol-3-yl)acetamido)benzoate]	76.8%
COc1ccc(CNC(=O)Cc2c[nH]c3ccccc23)cc1 [Example 1-39, 2-(1H-indol-3-yl)-N-(4-methoxybenzyl)acetamide]	91.57%
O=C(CCCc1c[nH]c2ccccc12)Nc1ccc(Br)cc1 [Example 1-76, N-(4-bromophenyl)-4-(1H-indol-3-yl)butanamide]	79.65%
O=C(Nc1ccc(Cl)c(Cl)c1)c1cc2ccccc2[nH]1 [Example 1-86, N-(3,4-dichlorophenyl)-1H-indole-2-carboxamide]	not active
O=C(Cc1c[nH]c2ccccc12)Nc1ccccc1F [Example 1-12, N-(2-fluorophenyl)-2-(1H-indol-3-yl)acetamide]	not active
COc1ccc(NC(=O)CCc2c[nH]c3ccccc23)cc1OC [Example 1-70, N-(3,4-dimethoxyphenyl)-3-(1H-indol-3-yl)propanamide]	not active

Same assay, conditions: compound 10 μM, cells without the compound = 100%, 10 µM

Compound	Remaining activity % at 10 μM [%]
O=C(NNc1ccc(Cl)c(Cl)c1)c1cc2ccccc2[nH]1 [Example 1-89, N′-(3,4-dichlorophenyl)-1H-indole-2-carbohydrazide]	83.22
